For assay [1], the target named is T1, APOL1 G2 (Homo sapiens, UniProt O14791, DEL388-389).
T1 construct: expressed in transfected cells; host or cells: HEK293/T-REx APOL1 G2 clone #2, doxycycline-inducible
T1 sequence (O14791 with tags, fused parts or gaps DEL388-389): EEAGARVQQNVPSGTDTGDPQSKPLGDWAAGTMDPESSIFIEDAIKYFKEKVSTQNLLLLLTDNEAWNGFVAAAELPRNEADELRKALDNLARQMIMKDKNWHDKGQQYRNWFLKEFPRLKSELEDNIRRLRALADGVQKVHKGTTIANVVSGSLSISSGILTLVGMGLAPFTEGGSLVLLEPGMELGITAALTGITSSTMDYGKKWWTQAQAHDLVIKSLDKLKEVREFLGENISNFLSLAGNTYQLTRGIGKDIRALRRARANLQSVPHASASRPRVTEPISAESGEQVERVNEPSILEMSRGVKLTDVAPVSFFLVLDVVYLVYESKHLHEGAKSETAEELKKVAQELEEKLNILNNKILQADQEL
The assay can be described thus: APOL1 G2 FLIPR calcium influx assay (HEK T-REx/GCaMP6f/APOL1 G2 K6.3 cells). The class given is cell-based. As to conditions: HEK293 clone expressing GCaMP6f, doxycycline-induced APOL1 G2; prevention of calcium influx; geometric mean of at least 2 assay runs. In outline:
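HEK293 clone stably expressing GCaMP6f, APOL1 G2 induced with doxycycline for 6 h; compounds (duplicate 8-point dose response) preincubated 10 min at room temperature in Ca2+-free Tyrode's buffer, pH 7.4. Ca2+ added to 5 mM final, influx read on FLIPR; AC50 is geometric mean of ≥2 runs.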

For assay [2], the target named is T1, APOL1 G2. Nature of the assay: APOL1 G2 HEK293 rescue of cell death caused by overexpression of APOL1 (CellTiter-Glo). The class given is cell-based. The note with it: HEK293/T-REx APOL1 G2 clone #2, doxycycline induction, 17 hours, CellTiter-Glo luminescence; reversal of cell death; geometric mean of at least 2 assay runs. In outline: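 Doxycycline (6 ng/mL)-induced HEK293/T-REx APOL1 G2 clone seeded at 5,000 cells/well with compound in duplicate 8-point 3-fold series (0.5% DMSO), 17 h at 37 °C. CellTiter-Glo luminescence; EC50 from four-parameter logistic fit, geometric mean of ≥2 runs.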
(ATP-based viability assays read luminescence as a measure of living cells.)

Broadly, the AC50 is the midpoint of the concentration-response curve, whichever way the signal moves. The term EC50 denotes the concentration that produces a half-maximal response.

On to `C[C@@H]1C[C@H](COc2ccc(S(=O)(=O)CCO)cc2)CN1C1CCc2ccc(Cl)cc2C1` (single isomer, unassigned) [Compound 62, 2-(4-{[(3S,5R)-1-[(2R or 2S)-7-chloro-1,2,3,4-tetrahydronaphthalen-2-yl]-5-methylpyrrolidin-3-yl]methoxy}benzenesulfonyl)ethan-1-ol], for which, on APOL1 G2 [1], the AC50 is 462 nM. Also, the EC50 on APOL1 G2 [2] is 201 nM.
`C[C@@H]1C[C@H](COc2ccc(S(=O)(=O)CCCS(C)(=O)=O)cc2)CN1C1CCc2c(C#N)cccc2C1` (single isomer, unassigned) [Compound 42, (6R or 6S)-6-[(2R,4S)-4-{[4-(3-methanesulfonylpropanesulfonyl)phenoxy]methyl}-2-methylpyrrolidin-1-yl]-5,6,7,8-tetrahydronaphthalene-1-carbonitrile]: the AC50 on APOL1 G2 [1] worked out at 1030 nM. For the same molecule, the EC50 at APOL1 G2 [2] was 227 nM.
For `C[C@@H]1CN(CCc2cc(Cl)cc(C#N)c2)C[C@H]1COc1cc(F)c(S(C)(=O)=O)c(F)c1` [Compound 82, 3-chloro-5-{2-[(3S,4S)-3-[(3,5-difluoro-4-methanesulfonylphenoxy)methyl]-4-methylpyrrolidin-1-yl]ethyl}benzonitrile], in that order: 370 nM and 165 nM.
For the molecule `C[C@@H]1C[C@H](COc2ccc(S(=O)(=O)CCCS(C)(=O)=O)cc2)CN1C1CCc2ccc(C#N)cc2C1` (single isomer, unassigned) [Compound 35], the AC50 at APOL1 G2 [1] turned out to be 948 nM. In addition, the EC50 on APOL1 G2 [2] stood at 256 nM.
For `C[C@@H]1CN(C2CCc3ccc(Cl)cc3C2)C[C@H]1COc1ccc(S(C)(=O)=O)cc1` (stereo partly drawn) [Compound 14, (3S,4S)-1-[7-chloro-1,2,3,4-tetrahydronaphthalen-2-yl]-3-[(4-methanesulfonylphenoxy)methyl]-4-methylpyrrolidine], in that order: 767 nM and 544 nM.
